Measured values reported in US12435083B2, “Cyclopropyl-(hetero)aryl-substituted ethylsulphonyl-pyridine derivatives” (BOEHRINGER INGELHEIM VETMEDICA GMBH, priority 2021, dated 2025).

Columns and labels:
[1] = test system: adult Ctenocephalides felis fleas; experiment: Ingestion activity (flea membrane feeding, blood feeding) against adult Ctenocephalides felis; conditions: flea membrane feeding (ingestion, blood feeding) assay, EC80
[2] = test system: adult Rhipicephalus sanguineus ticks; experiment: Contact activity against adult Rhipicephalus sanguineus (coated vial, mortality at 48 h); conditions: contact assay; >100 μM = not active at the top concentration; read-out: R. sanguineus contact activity EC50
In short: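 Compound in acetone/0.02% Triton X-100 coated onto glass vial walls and cap filter paper; after drying, ten adult ticks added per vial. Held at 24° C, 95% relative humidity, 12 h light/dark cycle. Mortality scored visually at 48 hours; EC50 derived from a dose-response series.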

[3] = test system: nymphs of Dermacentor variabilis ticks; experiment: Oral rat-tick efficacy against nymphs of Dermacentor variabilis ticks; type: in vivo; conditions: rats, oral gavage 10 mg/kg on Day 0, tick count on Day 3
Method: Example 10: Comparison of Oral Rat-Tick Efficacy Data for Selected Specific Compounds of Formula (I) Against Nymphs of Dermacentor variabilis Ticks
On Day −1, rats were sedated, fitted with an Elizabethan collar, and infested with approximately 35 nymphal stage D. variabilis ticks. On Day 0, each rat was treated via oral gavage with the appropriate formulation of placebo, positive control, or test compound at the appropriate dose. On Day 3, all rats were euthanized, and ticks were removed, counted, and disposed of. In Table 2 efficacy is expressed in % mortality compared to negative controls containing compound vehicle only.

| Structure (SMILES) | EC80 ([1]; read-out: C. felis membrane feeding (ingestion/blood feeding) activity EC80) [µM] | EC50 [2] [µM] | Observed efficacy (% mortality compared to negative controls) [3] [%] | C. felis membrane feeding (ingestion/blood feeding) activity EC80 [1] [µM] |
| --- | --- | --- | --- | --- |
| CCS(=O)(=O)c1cc(-c2ccc(C3(F)CC3)cc2)cnc1-c1nc2cc(C(F)(F)C(F)(F)F)nnc2n1C [compound 19] | <1 | 10 to 100 | >95 | – |
| CCS(=O)(=O)c1cc(-c2ccc(C3CC3)cc2)cnc1-c1nc2cc(C(F)(F)C(F)(F)F)cnc2n1C [compound 44] | – | 10 to 100 | >95 | 1 to 10 |
